Data on 11 molecules can be found in patent publication US10618907B2, “Cell-permeable, cell-compatible, and cleavable linkers for covalent tethering of functional elements” (Promega Corporation, priority 2015, dated 2020).

Structures are written as SMILES. Entries after “also recorded” stand apart in the source; their conditions may differ.

The test system of assay [1] is HALOTAG protein. To be noted: 1 μM conjugate, up to 60 min, lysate of cells expressing HALOTAG fusion.
Procedure: The 4 BIRB* conjugates were compared for binding kinetics to a HALOTAG protein in a cell lysate or inside live cells. Binding kinetics to HALOTAG in lysate was measured by adding the BIRB*-chloroalkane conjugates to a lysate prepared from cells expressing a HALOTAG fusion protein at a final concentration of 1 μM. After 0-60 minutes incubation, a fraction of each reaction taken at different time points (each containing a different BIRB* conjugate) was removed, HALGOTAG TMR-fluorescent ligand (Promega Corporation) was added to a final concentration of 1 μM and allowed to bind to the HALOTAG protein (which remained unbound). The time point fractions were resolved on SDS-PAGE and scanned on a Typhoon 9400 fluorescent imager (GE Healthcare). Bands were quantitated using IMAGEQUANT (GE Healthcare), and binding kinetics were determined as the percent binding with time relative to time zero when no chloroalkylated compound was added.
Binding kinetics to HALOTAG in lysate (FIG. 23A) was measured by treating a lysate prepared from cells, expressing a HALOTAG fusion protein, with the Ibrutinib chloroalkane conjugates at a final concentration of 1 μM for up 60 minutes. After a specified incubation time, an aliquot was removed and treated with HALOTAG TMR-fluorescent ligand (Promega Corporation) at a final concentration of 1 μM to label the remaining unbound HALOTAG fusion protein. The aliquots were resolved on SDS-PAGE and scanned on a Typhoon 9400 fluorescent imager (GE Healthcare). Bands were quantitated using IMAGEQUANT (GE Healthcare), and binding kinetics was determined as the percent binding over time relative to time zero when no chloroalkane-tagged compound added.
Binding kinetics to HALOTAG in lysate (FIG. 31A) were measured by treating a lysate prepared from cells expressing a HALOTAG fusion protein with the BIRB796 chloroalkane conjugates at a final concentration of 1 μM for up to 60 minutes. After a specified incubation time, an aliquot was removed and treated with HALOTAG TMR-fluorescent ligand (Promega Corporation) at a final concentration of 1 μM to label the remaining unbound HALOTAG fusion protein. The aliquots were resolved on SDS-PAGE and scanned on a Typhoon 9400 fluorescent imager (GE Healthcare). Bands were quantitated using IMAGEQUANT (GE Healthcare), and binding kinetics was determined as the percent binding over time relative to time zero where no chloroalkane-tagged compound was added.
In assay [2] the target is purified ABL1 (Homo sapiens, UniProt P00519). The assay is described as follows: Inhibition of purified ABL1 by ponatinib conjugates. In kind it is biochemical. The source says: Two additional linkers were generated, one where the three other carbamates were replaced with amides, and the other where the two allyl carbamate groups were replaced with allyl ether linkages. […] The linkers were compared for their influence on binding to HALOTAG and ABL1 in biochemical and cellular assays.

Assay [3] has as its system HALOTAG protein. The following applies: 10 μM conjugate, up to 90-120 min, live cells expressing HALOTAG.
Procedure: Binding kinetics to HALOTAG inside cells was measured by treating live cells expressing a HALOTAG protein with the BIRB* chloroalkane conjugates at a final concentration of 10 μM. After 0-120 minutes incubation time points, the medium was replaced with medium containing 5 μM HALOTAG TMR-fluorescent ligand, and the cells were incubated for additional 15 minutes allowing the TMR-fluorescent ligand to bind to the HALOTAG protein (which remained unbound). After the media was removed, the cells were lysed with a detergent lysis buffer, and the time points were analyzed as described above.
Both conjugates were compared for binding kinetics to HALOTAG inside live cells and for bioactivity. Binding kinetics to HALOTAG inside cells was measured by treating live cells expressing a HALOTAG protein with the BIRB796 chloroalkane conjugates at a final concentration of 10 μM. […] Bands were quantitated, and the binding kinetics were determined as the percent binding with time relative to time zero when no chloroalkylated compound was added.
Binding kinetics to HALOTAG inside cells (FIG. 23B) was measured by treating live cells, expressing a HALOTAG fusion protein, with the Ibrutinib chloroalkane conjugates at a final concentration of 10 μM for up to 90 minutes. […] Cells were then lysed with a detergent lysis buffer, and the samples at the various time points were analyzed as described above. […]
For assay [4], the system named is STATS reporter expression. Nature of the assay: In-cell inhibition of STATS reporter expression by ponatinib conjugates. The class given is cell-based. To be noted: cellular assay. The source says:
CA-T4E contains 4 carbamate groups, one of them essential for rapid binding kinetics to HALOTAG. Two additional linkers were generated, one where the three other carbamates were replaced with amides, and the other where the two allyl carbamate groups were replaced with allyl ether linkages. […] The linkers were compared for their influence on binding to HALOTAG and ABL1 in biochemical and cellular assays.

Assay [5] concerns the target T1, BTK:NLuc fusion (Homo sapiens, UniProt Q06187).
T1 construct: expressed in transfected cells
The assay is described as follows: Capture efficiency of BTK:NLuc fusion onto HALOTAG coated magnetic beads. The class given is binding. The following applies: cell lysate, 1 μM conjugate, 2 hour. Here is the method:
To interrogate capture efficiency of an interacting cellular target, a known target of Ibrutinib, BTK, was genetically fused to NANOLUC (NLuc) luciferase reporter (Promega Corporation). Since Ibrutinib is a covalent inhibitor of BKT, a TEV recognition site was incorporated between BTK and NLuc to allow proteolytic release of NLuc from the beads. Following a 2 hour treatment of cell lysate (from cells expressing the BTK:NLuc fusion) with 1 μM Ibrutinib chloroalkane conjugates (final concentration), the Ibrutinib chloroalkane conjugates, and their interacting BTK:NLuc target, were captured onto HALOTAG coated magnetic beads (Promega Corporation). Capture efficiency was determined as the percent of lost in bioluminescence in the unbound fractions relative to the untreated cell lysate.

Assay [6] has as its system TNFα secretion in LPS stimulated THP-1 cells. Nature of the assay: Inhibition of TNFα secretion in LPS stimulated THP-1 cells (ELISA). The class given is cell-based, human. The following applies: 2 h compound, LPS 250 ng/ml 24 h. Here is the method: Bioactivity was measured through inhibition of TNFα secretion in LPS stimulated THP-1 cells (FIGS. 8A-8C). THP-1 cells were plated into wells of 96-well plates at 100,000 cells/well, treated with serial dilutions of BIRB796 conjugates for 2 hours, and then stimulated for 24 hours with LPS (Sigma) at final concentration of 250 ng/ml. The supernatant was analyzed for human TNFα secretion by ELISA (R&D Systems). […] Thus, it imposes minimal impact on the chloroalkane features.
Inhibition of mitogen-activated protein kinases (MAPK) by BIRB796 reduces production of proinflammatory cytokines such as TNFα. Influence of the linkers on BIRB796 potency was tested by comparing the BIRB796 conjugates for inhibition of TNFα secretion from LPS-stimulated THP-1 cells (FIG. 32). THP-1 cells were plated in 96-well plates at 100,000 cells/well, treated with serial dilutions of BIRB796 (Cayman Chemical) and BIRB796-chloroalkane conjugates for 2 h, and then stimulated with LPS (Sigma) at final concentration of 250 ng mL−1 for 24 h. Supernatants were analyzed for human TNFα secretion by ELISA (R&D systems). Results indicates inverse correlation between the length of the cleavable chloroalkane linker and its influence on BIRB796 potency.

In assay [7] the target is T1, BTK:NLuc fusion. The assay is described as follows: Release of captured BTK:NLuc from HALOTAG beads by TEV or palladium-catalyzed cleavage, western. To be noted: anti-NLuc antibody. On the procedure: To interrogate the efficiency of palladium-catalyzed cleavage of these linkers, the release of BTK:NLuc fusion covalently captured onto the HALOTAG beads was determined by two methods: i) TEV proteolytic cleavage and ii) palladium-catalyzed cleavage (FIG.
24B). TEV proteolytic cleavage of the fusion would lead to the release of NLuc while palladium catalyzed cleavage of the allyl carbamate group within the chloroalkane linker would result with the release of BTK:NLuc.

T1 sequence (Q06187 whole entry, species assumed, the tested form may be a part): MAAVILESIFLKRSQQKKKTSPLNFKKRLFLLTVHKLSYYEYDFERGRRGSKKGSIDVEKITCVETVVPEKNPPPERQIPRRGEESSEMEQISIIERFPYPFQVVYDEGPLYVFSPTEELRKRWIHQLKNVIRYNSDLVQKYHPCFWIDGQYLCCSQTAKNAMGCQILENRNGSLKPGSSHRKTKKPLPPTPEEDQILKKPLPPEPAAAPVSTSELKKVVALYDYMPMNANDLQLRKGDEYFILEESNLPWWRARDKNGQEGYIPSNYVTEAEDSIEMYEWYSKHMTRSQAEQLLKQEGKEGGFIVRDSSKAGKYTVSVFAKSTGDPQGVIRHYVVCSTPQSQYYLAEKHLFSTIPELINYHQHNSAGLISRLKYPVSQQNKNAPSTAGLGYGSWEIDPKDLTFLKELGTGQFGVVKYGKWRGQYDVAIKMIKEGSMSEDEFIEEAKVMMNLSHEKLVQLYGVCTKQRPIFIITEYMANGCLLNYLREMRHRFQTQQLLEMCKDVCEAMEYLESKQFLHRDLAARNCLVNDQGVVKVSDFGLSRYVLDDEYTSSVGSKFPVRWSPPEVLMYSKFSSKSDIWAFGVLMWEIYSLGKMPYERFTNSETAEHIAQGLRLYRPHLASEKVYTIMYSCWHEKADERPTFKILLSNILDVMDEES
Sequence of purified ABL1 (P00519 whole entry, species assumed): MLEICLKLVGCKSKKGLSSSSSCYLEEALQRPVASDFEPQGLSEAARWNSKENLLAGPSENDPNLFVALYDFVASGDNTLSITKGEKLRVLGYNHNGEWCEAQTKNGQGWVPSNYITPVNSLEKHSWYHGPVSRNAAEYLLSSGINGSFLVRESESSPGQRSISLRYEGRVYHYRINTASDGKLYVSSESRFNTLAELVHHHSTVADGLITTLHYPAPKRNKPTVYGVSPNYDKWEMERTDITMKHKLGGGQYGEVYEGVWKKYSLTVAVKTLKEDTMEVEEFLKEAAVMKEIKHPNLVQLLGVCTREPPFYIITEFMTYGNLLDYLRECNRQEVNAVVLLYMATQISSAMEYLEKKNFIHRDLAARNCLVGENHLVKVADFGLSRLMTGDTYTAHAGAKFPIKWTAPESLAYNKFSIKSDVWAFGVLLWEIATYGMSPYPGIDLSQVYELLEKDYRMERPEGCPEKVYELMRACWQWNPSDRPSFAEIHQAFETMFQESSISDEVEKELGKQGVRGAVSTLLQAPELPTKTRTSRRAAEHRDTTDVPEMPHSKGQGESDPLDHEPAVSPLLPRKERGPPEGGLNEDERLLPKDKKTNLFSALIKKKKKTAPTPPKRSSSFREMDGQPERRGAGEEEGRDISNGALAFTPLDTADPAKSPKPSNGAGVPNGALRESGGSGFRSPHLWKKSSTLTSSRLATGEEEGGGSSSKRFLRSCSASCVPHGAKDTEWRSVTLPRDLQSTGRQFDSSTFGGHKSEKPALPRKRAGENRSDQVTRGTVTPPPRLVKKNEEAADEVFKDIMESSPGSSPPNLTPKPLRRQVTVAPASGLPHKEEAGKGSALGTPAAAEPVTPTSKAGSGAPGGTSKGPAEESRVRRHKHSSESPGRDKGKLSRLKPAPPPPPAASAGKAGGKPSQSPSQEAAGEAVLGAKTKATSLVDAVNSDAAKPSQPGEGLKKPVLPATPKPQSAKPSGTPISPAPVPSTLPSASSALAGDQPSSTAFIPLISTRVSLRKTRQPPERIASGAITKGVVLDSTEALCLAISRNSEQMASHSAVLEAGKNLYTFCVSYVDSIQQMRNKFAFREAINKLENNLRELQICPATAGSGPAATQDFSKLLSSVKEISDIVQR

For `CC(C)(C)c1cc(NC(=O)Nc2ccc(OCCN3CCOCC3)c3ccccc23)n(-c2cccc(CNC(=O)OC/C=C/COCCOC(=O)NCCOCCOCCCCCCCl)c2)n1` [CA-T2E], the “binding kinetics to HALOTAG in lysate” value in assay [1] is recorded as “faster binding to HALOTAG than respective linkers with a cis-double bond”.

On to `Cc1ccc(C(=O)Nc2ccc(CN3CCN(CCCNC(=O)CCOCCOCCC(=O)NC/C=C/CNC(=O)CCOCCOCCOC(=O)NCCOCCOCCCCCCCl)CC3)c(C(F)(F)F)c2)cc1C#Cc1cnc2cccnn12` [ponatinib-tri-amide], for which, in assay [2], the “inhibition of purified ABL1” value is reported as “comparable inhibition of purified ABL1”. Besides, the “binding kinetics to HALOTAG inside live cells (cellular permeability)” value in assay [3] is given as “reduced binding kinetics to intracellular HALOTAG”. Also, the “decrease of ponatinib potency relative to CA-T4E and all PEG linkers” value in assay [4] was determined as 20 fold.

With `Nc1ncnc2c1c(-c1ccc(Oc3ccccc3)cc1)nn2[C@@H]1CCCN(C(=O)/C=C/CNC(=O)OC/C=C/COC(=O)NCCOCCOCCOC(=O)NCCOCCOCCCCCCCl)C1` [PBI-6029], the “capture efficiency of BTK:NLuc” value in assay [5] is on record as “did not interfere with capture efficiency”.

As to `CC(C)(C)c1cc(NC(=O)Nc2ccc(OCCN3CCOCC3)c3ccccc23)n(-c2cccc(CNC(=O)OC/C=C/COC(=O)NCCOCCOCCOC(=O)NCCOCCOCCCCCCCl)c2)n1` [CA-T3E], in assay [1], the “binding kinetics to HALOTAG in lysate” value is given as “faster binding to HALOTAG than respective linkers with a cis-double bond”.

As to `Nc1ncnc2c1c(-c1ccc(Oc3ccccc3)cc1)nn2[C@@H]1CCCN(C(=O)/C=C/CNC(=O)OC/C=C\COC(=O)NCCOCCOCCOC(=O)NCCOCCOCCCCCCCl)C1` [PBI-6030], the “capture efficiency of BTK:NLuc” value in assay [5] is given as “did not interfere with capture efficiency”.

`Nc1ncnc2c1c(-c1ccc(Oc3ccccc3)cc1)nn2[C@@H]1CCCN(C(=O)/C=C/CNC(=O)OC/C=C\COCCOC(=O)NCCOCCOCCCCCCCl)C1` [PBI-6025]: the “capture efficiency of BTK:NLuc” value in assay [5] is listed as “reduced capture efficiency relative to PBI-6040”.

Turning to `CC(C)(C)c1cc(NC(=O)Nc2ccc(OCCN3CCOCC3)c3ccccc23)n(-c2cccc(CNC(=O)OCCOCCOCCNC(=O)OC/C=C/COC(=O)NCCOCCOCCOC(=O)NCCOCCOCCCCCCCl)c2)n1` [BIRB796-CA-T4E], the “inhibition of TNFα secretion (potency)” value in assay [6] is given as “potency similar to non-cleavable linker CA-T1”. Moreover, the “binding kinetics to HALOTAG in lysate” value in assay [1] is “faster binding to HALOTAG than respective linkers with a cis-double bond; also recorded: most similar to the non-cleavable linker CA-T1”.

Consider `CC(C)(C)c1cc(NC(=O)Nc2ccc(OCCN3CCOCC3)c3ccccc23)n(-c2cccc(CNC(=O)OCCOCCOCCNC(=O)OC/C=C\COC(=O)NCCOCCOCCOC(=O)NCCOCCOCCCCCCCl)c2)n1` [CA-T4Z], for which the “inhibition of TNFα secretion (potency)” value in assay [6] is given as “potency similar to non-cleavable linker CA-T1”.

In the case of `CC(C)(C)c1cc(NC(=O)Nc2ccc(OCCN3CCOCC3)c3ccccc23)n(-c2cccc(CNC(=O)OC/C=C\COC(=O)NCCOCCOCCCCCCCl)c2)n1` [CA-T0], the “binding kinetics to HALOTAG in lysate” value in assay [1] is on record as “lower binding kinetics to HALOTAG”.

Consider `Nc1ncnc2c1c(-c1ccc(Oc3ccccc3)cc1)nn2[C@@H]1CCCN(C(=O)/C=C/CNC(=O)OC/C=C/COCCOC(=O)NCCOCCOCCCCCCCl)C1` [PBI-6027], for which the “capture efficiency of BTK:NLuc” value in assay [5] was “reduced capture efficiency relative to PBI-6040”.

In the case of `Nc1ncnc2c1c(-c1ccc(Oc3ccccc3)cc1)nn2[C@@H]1CCCN(C(=O)/C=C/CNC(=O)OC/C=C\COC(=O)NCCOCCOCCCCCCCl)C1` [PBI-6041], the “capture efficiency of BTK:NLuc” value in assay [5] was “reduced capture efficiency relative to PBI-6040”. The “release of NLuc by TEV proteolytic cleavage” value in assay [7] is “lower release”. In addition, the “binding kinetics to HALOTAG in lysate” value in assay [1] is “lower binding kinetics to HALOTAG”.
